In the supplement of paper PMC11451515:

Legend:
Conditions in all cases: 48 h
SEM cells [1] = assay: cell viability relative to DMSO control; higher = less cytotoxic
Outline: (§1)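 NOMO1 or SEM cells were plated at 500 cells/well and P12-Ichikawa cells at 1000 cells/well in 1536-well plates (5 μl), after each leukemia line had been adapted for at least four passages in each medium. Pin dosing delivered library compounds in DMSO at 11 threefold concentrations, 47 μM to 0.79 nM. CellTiter-Glo One luminescence was read after 48 h at 37°C. Viability is reported as a per-plate percentage of DMSO wells, with cell-free wells as background.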

NOMO1 [2] = assay: as above
Outline: as §1

P12-Ichikawa [3] = assay: as above
Outline: as §1

SEM cells [4] = assay: AUC of viability dose-response curve (% viability x log10 dose units); higher = less sensitive
Outline: (§2)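 Leukemia cells adapted to each medium (500 or 1000 cells/well, 1536-well plates) were exposed to library compounds in DMSO for 48 h at 37°C at 11 threefold doses, 47 μM to 0.79 nM. Luminescence by CellTiter-Glo One was normalised per plate to DMSO and cell-free wells, then fitted with a four-parameter log-logistic curve on log10 dose. Curves above full viability were scaled and quality-control failures removed before area under the curve was integrated by trapezoidal rule.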

NOMO1 [5] = assay: as above
Outline: as §2

P12-Ichikawa [6] = assay: as above
Outline: as §2

[7] = HPLM + 10% dialyzed FBS, 0.000781 µM
[8] = HPLM + 10% dialyzed FBS, 0.00234 µM
[9] = HPLM + 10% dialyzed FBS, 0.00702 µM
[10] = HPLM + 10% dialyzed FBS, 0.0211 µM
[11] = HPLM + 10% dialyzed FBS, 0.0632 µM
[12] = HPLM + 10% dialyzed FBS, 0.19 µM
[13] = HPLM + 10% dialyzed FBS, 0.569 µM
[14] = HPLM + 10% dialyzed FBS, 1.71 µM
[15] = HPLM + 10% dialyzed FBS, 5.12 µM
[16] = HPLM + 10% dialyzed FBS, 15.4 µM
[17] = HPLM + 10% dialyzed FBS, 46.1 µM
[18] = RPMI 5 mM glucose + 10% FBS, 0.000781 µM
[19] = RPMI 5 mM glucose + 10% FBS, 0.00234 µM
[20] = RPMI 5 mM glucose + 10% FBS, 0.00702 µM
[21] = RPMI 5 mM glucose + 10% FBS, 0.0211 µM
[22] = RPMI 5 mM glucose + 10% FBS, 0.0632 µM
[23] = RPMI 5 mM glucose + 10% FBS, 0.19 µM
[24] = RPMI 5 mM glucose + 10% FBS, 0.569 µM
[25] = RPMI 5 mM glucose + 10% FBS, 1.71 µM
[26] = RPMI 5 mM glucose + 10% FBS, 5.12 µM
[27] = RPMI 5 mM glucose + 10% FBS, 15.4 µM
[28] = RPMI 5 mM glucose + 10% FBS, 46.1 µM
[29] = RPMI 5 mM glucose + 10% dialyzed FBS, 0.000781 µM
[30] = RPMI 5 mM glucose + 10% dialyzed FBS, 0.00234 µM
[31] = RPMI 5 mM glucose + 10% dialyzed FBS, 0.00702 µM
[32] = RPMI 5 mM glucose + 10% dialyzed FBS, 0.0211 µM
[33] = RPMI 5 mM glucose + 10% dialyzed FBS, 0.0632 µM
[34] = RPMI 5 mM glucose + 10% dialyzed FBS, 0.19 µM
[35] = RPMI 5 mM glucose + 10% dialyzed FBS, 0.569 µM
[36] = RPMI 5 mM glucose + 10% dialyzed FBS, 1.71 µM
[37] = RPMI 5 mM glucose + 10% dialyzed FBS, 5.12 µM
[38] = RPMI 5 mM glucose + 10% dialyzed FBS, 15.4 µM
[39] = RPMI 5 mM glucose + 10% dialyzed FBS, 46.1 µM
[40] = RPMI 5 mM glucose + 10% dialyzed FBS

## O=c1oc2cc(O)ccc2s1
SEM cells [1]; [7]
  cell viability: 85.6%
SEM cells [1]; [8]
  cell viability: 110%
SEM cells [1]; [9]
  cell viability: 98.9%
SEM cells [1]; [10]
  cell viability: 95.4%
SEM cells [1]; [11]
  cell viability: 109%
SEM cells [1]; [12]
  cell viability: 105%
SEM cells [1]; [13]
  cell viability: 120%
SEM cells [1]; [14]
  cell viability: 93.9%
SEM cells [1]; [15]
  cell viability: 111%
SEM cells [1]; [16]
  cell viability: 105%
SEM cells [1]; [17]
  cell viability: 37.9%
SEM cells [1]; [18]
  cell viability: 91.8%
SEM cells [1]; [19]
  cell viability: 106%
SEM cells [1]; [20]
  cell viability: 82.9%
SEM cells [1]; [21]
  cell viability: 110%
SEM cells [1]; [22]
  cell viability: 103%
SEM cells [1]; [23]
  cell viability: 98.6%
SEM cells [1]; [24]
  cell viability: 112%
SEM cells [1]; [25]
  cell viability: 118%
SEM cells [1]; [26]
  cell viability: 109%
SEM cells [1]; [27]
  cell viability: 77.6%
SEM cells [1]; [28]
  cell viability: 24.8%
SEM cells [1]; [29]
  cell viability: 97.4%
SEM cells [1]; [30]
  cell viability: 119%
SEM cells [1]; [31]
  cell viability: 99.3%
SEM cells [1]; [32]
  cell viability: 109%
SEM cells [1]; [33]
  cell viability: 121%
SEM cells [1]; [34]
  cell viability: 88.3%
SEM cells [1]; [35]
  cell viability: 112%
SEM cells [1]; [36]
  cell viability: 106%
SEM cells [1]; [37]
  cell viability: 129%
SEM cells [1]; [38]
  cell viability: 90.3%
SEM cells [1]; [39]
  cell viability: 37.6%
NOMO1 [2]; [7]
  cell viability: 109%
NOMO1 [2]; [8]
  cell viability: 128%
NOMO1 [2]; [9]
  cell viability: 120%
NOMO1 [2]; [10]
  cell viability: 107%
NOMO1 [2]; [11]
  cell viability: 114%
NOMO1 [2]; [12]
  cell viability: 110%
NOMO1 [2]; [13]
  cell viability: 110%
NOMO1 [2]; [14]
  cell viability: 95.8%
NOMO1 [2]; [15]
  cell viability: 101%
NOMO1 [2]; [16]
  cell viability: 110%
NOMO1 [2]; [17]
  cell viability: 90.3%
NOMO1 [2]; [18]
  cell viability: 109%
NOMO1 [2]; [19]
  cell viability: 117%
NOMO1 [2]; [20]
  cell viability: 130%
NOMO1 [2]; [21]
  cell viability: 108%
NOMO1 [2]; [22]
  cell viability: 105%
NOMO1 [2]; [23]
  cell viability: 116%
NOMO1 [2]; [24]
  cell viability: 108%
NOMO1 [2]; [25]
  cell viability: 108%
NOMO1 [2]; [26]
  cell viability: 115%
NOMO1 [2]; [27]
  cell viability: 102%
NOMO1 [2]; [28]
  cell viability: 98.3%
NOMO1 [2]; [29]
  cell viability: 98.1%
NOMO1 [2]; [30]
  cell viability: 116%
NOMO1 [2]; [31]
  cell viability: 117%
NOMO1 [2]; [32]
  cell viability: 119%
NOMO1 [2]; [33]
  cell viability: 103%
NOMO1 [2]; [34]
  cell viability: 104%
NOMO1 [2]; [35]
  cell viability: 112%
NOMO1 [2]; [36]
  cell viability: 105%
NOMO1 [2]; [37]
  cell viability: 101%
NOMO1 [2]; [38]
  cell viability: 107%
NOMO1 [2]; [39]
  cell viability: 109%
P12-Ichikawa [3]; [7]
  cell viability: 114%
P12-Ichikawa [3]; [8]
  cell viability: 115%
P12-Ichikawa [3]; [9]
  cell viability: 111%
P12-Ichikawa [3]; [10]
  cell viability: 115%
P12-Ichikawa [3]; [11]
  cell viability: 116%
P12-Ichikawa [3]; [12]
  cell viability: 117%
P12-Ichikawa [3]; [13]
  cell viability: 115%
P12-Ichikawa [3]; [14]
  cell viability: 110%
P12-Ichikawa [3]; [15]
  cell viability: 108%
P12-Ichikawa [3]; [16]
  cell viability: 106%
P12-Ichikawa [3]; [17]
  cell viability: 104%
P12-Ichikawa [3]; [18]
  cell viability: 115%
P12-Ichikawa [3]; [19]
  cell viability: 131%
P12-Ichikawa [3]; [20]
  cell viability: 95.8%
P12-Ichikawa [3]; [21]
  cell viability: 116%
P12-Ichikawa [3]; [22]
  cell viability: 117%
P12-Ichikawa [3]; [23]
  cell viability: 116%
P12-Ichikawa [3]; [24]
  cell viability: 117%
P12-Ichikawa [3]; [25]
  cell viability: 107%
P12-Ichikawa [3]; [26]
  cell viability: 108%
P12-Ichikawa [3]; [27]
  cell viability: 107%
P12-Ichikawa [3]; [28]
  cell viability: 96.8%
P12-Ichikawa [3]; [29]
  cell viability: 104%
P12-Ichikawa [3]; [30]
  cell viability: 126%
P12-Ichikawa [3]; [31]
  cell viability: 109%
P12-Ichikawa [3]; [32]
  cell viability: 112%
P12-Ichikawa [3]; [33]
  cell viability: 111%
P12-Ichikawa [3]; [34]
  cell viability: 116%
P12-Ichikawa [3]; [35]
  cell viability: 114%
P12-Ichikawa [3]; [36]
  cell viability: 104%
P12-Ichikawa [3]; [37]
  cell viability: 100%
P12-Ichikawa [3]; [38]
  cell viability: 103%
P12-Ichikawa [3]; [39]
  cell viability: 85.9%
SEM cells [4]; HPLM + 10% dialyzed FBS
  AUC of viability dose-response curve: 462
SEM cells [4]; RPMI 5 mM glucose + 10% FBS
  AUC of viability dose-response curve: 447
SEM cells [4]; [40]
  AUC of viability dose-response curve: 453
NOMO1 [5]; HPLM + 10% dialyzed FBS
  AUC of viability dose-response curve: 439
NOMO1 [5]; RPMI 5 mM glucose + 10% FBS
  AUC of viability dose-response curve: 448
NOMO1 [5]; [40]
  AUC of viability dose-response curve: 467
P12-Ichikawa [6]; HPLM + 10% dialyzed FBS
  AUC of viability dose-response curve: 466
P12-Ichikawa [6]; RPMI 5 mM glucose + 10% FBS
  AUC of viability dose-response curve: 446
P12-Ichikawa [6]; [40]
  AUC of viability dose-response curve: 454
